Reference: ChEMBL document CHEMBL2331275, “Fluorescence study for selecting specific ligands toward HER2 receptor: an example of receptor fragment approach” (Eur J Med Chem, 2013)
Active and inactive are the calls of the source. The rule behind the calls is not given here.

Biological target: Receptor tyrosine-protein kinase erbB-2 (Homo sapiens, UniProt P04626)
Test: Binding affinity to synthetic peptide mimicking HER2 subdomain 4 (unknown origin) by fluorescence spectroscopic analysis

Sequence of Receptor tyrosine-protein kinase erbB-2 (P04626 whole entry): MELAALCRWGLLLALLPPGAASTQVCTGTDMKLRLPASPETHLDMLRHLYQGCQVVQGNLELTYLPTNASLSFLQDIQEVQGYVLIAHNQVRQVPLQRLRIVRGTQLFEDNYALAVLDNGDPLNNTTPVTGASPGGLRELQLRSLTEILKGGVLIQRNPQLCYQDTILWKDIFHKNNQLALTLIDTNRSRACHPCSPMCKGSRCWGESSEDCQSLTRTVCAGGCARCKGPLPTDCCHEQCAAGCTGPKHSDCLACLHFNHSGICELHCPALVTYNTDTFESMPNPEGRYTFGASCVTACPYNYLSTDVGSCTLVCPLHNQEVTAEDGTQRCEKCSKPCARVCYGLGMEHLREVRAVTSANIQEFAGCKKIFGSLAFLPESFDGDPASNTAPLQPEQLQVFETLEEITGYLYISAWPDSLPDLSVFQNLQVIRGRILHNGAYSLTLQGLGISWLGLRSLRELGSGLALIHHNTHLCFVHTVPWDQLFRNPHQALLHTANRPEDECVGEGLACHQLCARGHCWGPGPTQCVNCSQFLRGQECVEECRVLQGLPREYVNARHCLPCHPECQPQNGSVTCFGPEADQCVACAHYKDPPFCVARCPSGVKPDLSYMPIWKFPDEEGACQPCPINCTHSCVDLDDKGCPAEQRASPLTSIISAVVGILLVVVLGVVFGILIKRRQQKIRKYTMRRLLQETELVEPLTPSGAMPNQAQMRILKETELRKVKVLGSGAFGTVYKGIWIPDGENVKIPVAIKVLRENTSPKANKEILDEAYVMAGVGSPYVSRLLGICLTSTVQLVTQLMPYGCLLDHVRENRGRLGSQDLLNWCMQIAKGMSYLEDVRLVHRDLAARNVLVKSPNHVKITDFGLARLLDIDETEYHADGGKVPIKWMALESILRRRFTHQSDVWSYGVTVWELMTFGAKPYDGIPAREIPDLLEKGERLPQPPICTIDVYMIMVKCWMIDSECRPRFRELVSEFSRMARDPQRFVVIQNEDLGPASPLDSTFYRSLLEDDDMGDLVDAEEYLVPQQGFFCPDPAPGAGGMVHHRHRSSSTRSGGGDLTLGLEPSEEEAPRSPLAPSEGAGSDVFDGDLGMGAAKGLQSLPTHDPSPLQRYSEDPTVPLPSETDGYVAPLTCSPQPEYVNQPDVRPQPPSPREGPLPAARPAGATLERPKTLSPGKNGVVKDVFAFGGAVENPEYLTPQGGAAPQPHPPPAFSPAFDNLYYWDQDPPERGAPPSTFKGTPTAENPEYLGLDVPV

Kd [nM] | Activity | Substance
446 |  | Ac-ARIYPTNGYTRY-NH2
174 |  | Ac-CQQHYTTPPTFG-NH2
 | inactive | Ac-CSRWGGDGFYAMDYWG-NH2
10.2 |  | Ac-QDVNTAVAW-NH2
